Molecules are shown by their SMILES.

Sequence of Protein Tat (Human immunodeficiency virus type 1 group M subtype B (isolate HXB2)) (P04608 whole entry, looked up): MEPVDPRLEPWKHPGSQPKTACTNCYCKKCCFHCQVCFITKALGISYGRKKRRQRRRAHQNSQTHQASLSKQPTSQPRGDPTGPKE

The assay concerns the target Protein Tat (Human immunodeficiency virus type 1 group M subtype B (isolate HXB2)) (UniProt P04608). Description: inhibitors of Tat binding to TAR RNA, dose response, counter-screen for Vif-APOBEC3G degradation inhibitor project, biochemical, fluorescence polarization, FAM-labeled TAR RNA (AID 1117361).
For `Cc1c(Cl)cccc1NS(=O)(=O)c1ccc2c(c1)C1C=CCC1C(c1ccc(C(=O)O)cc1)N2` (configuration not stated), the IC50 (commonly the concentration that inhibits the measured activity by half) was 8.54 µM.
With `O=[N+]([O-])c1cc(/C=N\Nc2nccs2)ccc1O` the figure was 5.68 µM.
With `CCc1c(C)sc(NC(=O)c2cc(-c3ccco3)on2)c1C#N` the figure was 52.4 µM; with `N#Cc1c(N)sc(=S)c2c1CCCCC2`, 1.84 µM; with `Oc1ccc(-c2cn3c(n2)SCC3)cc1O`, 71.9 µM.
In the case of `O=C1CC(c2ccco2)CC(O)=C1C=Nc1cc(Cl)ccc1Cl` (configuration not stated) it was 7.33 µM; in that of `CC(N=Cc1cccc(O)c1O)c1ccccc1` (configuration not stated), 6.96 µM.
`COc1ccccc1NC(=O)CSc1nnc(Cc2cc(=O)[nH]c(=O)[nH]2)n1-c1ccccc1`: the 50% inhibitory concentration (IC50) was 66.5 µM.
In the case of `O=C(O)c1ccc2c(c1)C1C(Cl)C(Sc3ccccc3[N+](=O)[O-])CC1C(c1cccc([N+](=O)[O-])c1)N2` (configuration not stated) it was 6.3 µM; in that of `NS(=O)(=O)c1ccc(N=Nc2c[nH]c(=O)c(O)c2)cc1`, 9.47 µM.
In the case of `O=C(Cc1csc(N2CCOCC2)n1)N/N=C/c1ccc(O)c(O)c1O` it was 16.7 µM; in that of `O=C(CCS(=O)(=O)c1ccc(Br)cc1)NC1CCCC1`, 50.8 µM; in that of `COc1ccc(/C=C(\NC(=O)c2ccc(OCC(C)C)cc2)C(=O)OCc2ccco2)cc1`, 61.5 µM.
In the case of `O=[N+]([O-])c1ccc(N/N=C/c2ccc(O)c(O)c2O)c(S(=O)(=O)N2CCOCC2)c1` it was 34 µM; in that of `Cc1cccc(/C=C(\C(=O)O)c2ccc(S(=O)(=O)N3CCCC3)s2)c1`, 98 µM; in that of `COc1cccc(C2CC(c3ccccc3OC)n3nc(N)nc3N2)c1` (configuration not stated), 0.686 µM.
In the case of `Cc1ccc(/C=C/C2=Cc3c(sc(NC(=O)CSc4n[nH]c(N)n4)c3C#N)C(C)(C)C2)o1`, the concentration for half-maximal inhibition (IC50) was 3.04 µM.
In the case of `O=C(CN1CCN(S(=O)(=O)c2ccc(Cl)cc2)CC1)Nc1ccc2c(c1)OCCO2` it was 1.31 µM; in that of `CC(/C=N/n1c(-c2ccncc2)n[nH]c1=S)=C\c1ccco1`, 8.22 µM.
In the case of `O=C(O)CC(C(=O)O)N1C(=O)/C(=C/c2ccc(-c3nc4ccccc4s3)o2)SC1=S` (configuration not stated) it was 11.3 µM; in that of `COc1ccc(-n2c(C)cc(C(=O)CSc3nn4c(=O)c(C(C)(C)C)nnc4s3)c2C)cc1`, 62.7 µM; in that of `O=C(Nc1ccc2nc(-c3ccco3)c(-c3ccco3)nc2c1)NC1CC1`, 1.83 µM.
With `CC(=O)c1ccc(NC(=O)CSc2nnc(-c3ccco3)c(-c3ccco3)n2)cc1` the figure was 6.61 µM.
For `Cc1nc2cc(-c3ccsc3-n3c(C)ccc3C)[nH]n2c(=O)c1Cl`, the IC50 was 2.17 µM.
In the case of `O=C(/C=C/c1cccs1)Nc1ccc(Br)cn1` it was 31.4 µM; in that of `O=C(NC1CC1)c1cc(-c2ccco2)nc2ccccc12`, 9.27 µM; in that of `C(=C\c1ccco1)/C=N/n1cnnc1`, 10.4 µM.
In the case of `CNC(=O)c1ccccc1NC(=O)c1ccc(C)c(S(=O)(=O)N2CCCCC2)c1` it was 0.969 µM; in that of `CC(=O)NN1C(=O)/C(=C/c2ccc(Br)o2)SC1=S`, 36.2 µM.
In the case of `O=C(O)CCCCC1CCSS1` (configuration not stated) it was 5.89 µM; in that of `CCNC(=O)COC(=O)c1cc(-c2ccco2)nc2ccccc12`, 8.09 µM.
Regarding `O=C1/C(=C\c2ccco2)NC(=S)N1c1ccccc1`, the half-inhibitory concentration (IC50) was 16.1 µM.
With `O=C(O)C1Nc2c(Cl)cc(Cl)cc2C2C=CCC12` (configuration not stated) the figure was 94.4 µM.
With `CCOc1ccc(-n2c(Cc3cc(=O)[nH]c(=O)[nH]3)nnc2SC(C)C(=O)OC)cc1` (configuration not stated) the figure was 92.9 µM.
In the case of `CCCCNC(=O)c1ccc2nc(-c3ccco3)c(-c3ccco3)nc2c1` it was 6.84 µM; in that of `CN(Cc1cnc2nc(N)nc(N)c2n1)c1ccc(C(=O)NC(CCC(=O)O)C(=O)O)cc1` (configuration not stated), 40.1 µM; in that of `Cc1ccc(S(=O)(=O)N2CCC(C(=O)Nc3nnc(-c4ccco4)s3)CC2)cc1`, 51.1 µM.
Turning to `Oc1ccc(/C=N/N2CCOCC2)c(O)c1O`, the IC50 was 14 µM.
On to `Cn1c(N)c(C(=O)COC(=O)C2CCCCC2)c(=O)n(C)c1=O`, for which the IC50 is 76.2 µM.
In the case of `Oc1ccc(N=Cc2ccc(-c3cccs3)s2)cc1`, the half-inhibitory concentration (IC50) was 8.64 µM.
With `Cc1cc(-c2cc(-c3ccc(Cl)cc3)nc(N)c2C#N)co1` the figure was 83.6 µM.
For the compound `COC(=O)c1ccc(=O)c2nc3/c(=C/O)c(O)cc(=O)c3[nH]c12`, the IC50 was 20.3 µM.
With `O=C(N/N=C/C=C/c1ccco1)c1cccs1` the figure was 11.6 µM; with `O=C(O)CCCNc1cc(N2CCC3(CC2)OCCO3)c2noc3c2c1C(=O)c1ccccc1-3`, 3.59 µM.
With `COc1ccc2nc(-c3ccco3)c(-c3ccco3)nc2c1` the figure was 3.13 µM; with `O=C(O)CSc1c2c(nc3cc(C(=O)N4CCOCC4)ccc13)CCCC2`, 12.2 µM.
With `COc1cc(C2C(C#N)=C(N)N(c3cccnc3)C3=C2C(=O)CCC3)ccc1O` (configuration not stated) the figure was 43.4 µM; with `Cc1ccc(Cl)cc1N1CCN(C(=O)COc2ccc3c(c2)CCC3)CC1`, 57.2 µM; with `O=C(CCCCCN1C(=O)CCC1=O)Nc1ccc(Cl)c(C(F)(F)F)c1`, 16.4 µM.
For the compound `O=C(OC1CCCCC1)c1ccc2c(c1)C1C=CCC1C(C(=O)O)N2` (configuration not stated), the half-inhibitory concentration (IC50) is 2.26 µM.
In the case of `O=S(=O)(O)c1cc(O)c2cc(Nc3ccccc3)ccc2c1` it was 20.5 µM; in that of `CCOc1cccc(=O)c2c(C)oc(C)c12`, 22.6 µM; in that of `O=C(O)c1cccc(-n2cccc2/C=C/[N+](=O)[O-])c1`, 5.57 µM.
Turning to `Cc1ccc(C)n1-c1ccc(-c2nnc3n2CCCCC3)s1`, the IC50 is 54.2 µM.
In the case of `O=C1NC(=O)N(Cc2ccco2)C(=O)/C1=C/C=C/c1ccco1` it was 1.95 µM.
In the case of `Nc1cc(N)c(OCC(F)(F)F)cc1OCC(F)(F)F` it was 11.4 µM.
As to `Cc1ccc(C)n1-c1ccc(C(=O)O)cc1`, the half-maximal inhibitory concentration (IC50) was 9.09 µM.
`Cc1ccc(-c2c3c([nH]c(=S)c2C#N)CCCC3)o1`: the IC50 was 21.2 µM.
In the case of `Cc1cc(-c2nc3c4c5c(sc4[nH]c(=O)n3n2)CCC5)c(C)o1` it was 3.66 µM; in that of `Cc1cccc(-n2nc3c(c2NC(=O)c2ccc(Br)o2)CSC3)c1`, 85.9 µM.
In the case of `CS(=O)(=O)c1ccc2c(c1)SC1=NC(=O)/C(=C/c3ccco3)C(=N)N12` it was 10.4 µM.
In the case of `N#Cc1c(-c2ccco2)cc(-c2ccccc2)[nH]c1=O` it was 5 µM.

(Values after PubChem BioAssay AID1117361 (Southern Research Institute, 2015).)
